# In patent publication US9701628B2, “12-epi pleuromutilins” (NABRIVA THERAPEUTICS AG, priority 2014, dated 2017):
# Counter-ions that a name gives are not always drawn. Like-named read-outs stand apart in the source and are kept apart here.
# Key:
# [1] = system: Escherichia coli ATCC25922; assay: MIC by broth microdilution (CLSI) against Escherichia coli ATCC 25922; assay type: cell-based
# Protocol: (§1) The in vitro activity against aerobic bacteria was determined by Broth Microdilution Test according to the Clinical and Laboratory Standards Institute (CLSI, former NCCLS) Document M7-A9 Vol 32, No 2 “Methods for Dilution Antimicrobial Susceptibility Tests for Bacteria that Grow Aerobically; Approved Standard—Ninth Edition (2012)”; and the test against anaerobic bacteria was performed by Agar Dilution Test according to the Clinical and Laboratory Standards Institute (CLSI, former NCCLS), Document, M11-A8, Vol. 32, No. 5: “Methods for Antimicrobial Susceptibility Testing of Anaerobic Bacteria; Approved Standard—Eighth Edition (2012)”. Performance standards and interpretive criteria followed the CLSI Document, M100-S23: “Performance Standards for Antimicrobial Susceptibility Testing; Twenty-Third Informational Supplement” (2013). The in vivo activity was tested by the septicaemia mouse model against Staphylococcus aureus and Escherichia coli.
# (§2) The antibacterial activity expressed as minimal inhibitory concentration (MIC) was determined according to the approved standard reference recommendations of CLSI (former NCCLS) as described in the description of the application.
# [2] = system: Staphylococcus aureus ATCC 49951; assay: MIC by broth microdilution (CLSI) against Staphylococcus aureus ATCC 49951; assay type: cell-based
# Protocol: as §1, §2
# [3] = Escherichia coli ATCC25922, in vitro
# [4] = Staphylococcus aureus ATCC 49951, in vitro
# [5] = Escherichia coli ATCC25922, in vitro, read-out: MIC
# [6] = ATCC49951, Staphylococcus aureus ATCC 49951, in vitro, read-out: MIC
"MIC [1, 3] [µg/mL]","MIC [2, 4]","MIC [1, 5] [µg/mL]","MIC [2, 6] [µg/mL]",SMILES,further results
0.5,0.06 µg/mL,,,"C[C@@H]1CC[C@@]23CCC(=O)[C@H]2[C@]1(C)[C@H](OC(=O)CSc1cccc(CN)c1)C[C@](C)(CNCCCN)[C@@H](O)[C@@H]3C.Cl.Cl.Cl [Example 86, 12-epi-12-desvinyl-14-O-[(3-Aminomethyl-phenylsulfanyl)-acetyl]-12-[(3-amino-propylamino)-methyl] mutilin trihydrochloride]",
,,0.5,0.125,"C[C@@H]1CC[C@@]23CCC(=O)[C@H]2[C@]1(C)[C@H](OC(=O)CSc1ccc(CN)cn1)C[C@](C)(CNCc1ccc(CN)cc1)[C@@H](O)[C@@H]3C [Example 98, 12-epi-12-desvinyl-14-O-{[5-Aminomethyl-pyridin-2-yl-sulfanyl)]-acetyl}-12-[(4-aminomethyl-benzylamino)-methyl] mutilin tetrahydrochloride]",
,,0.5,0.25,"C[C@@H]1CC[C@@]23CCC(=O)[C@H]2[C@]1(C)[C@H](OC(=O)CSc1ccc(CN)cn1)C[C@](C)(CNCc1ccc(CN)c(F)c1)[C@@H](O)[C@@H]3C [Example 99, 12-epi-12-Desvinyl-14-O-{[5-aminomethyl-pyridin-2-yl-sulfanyl)]-acetyl}-12-[(4-aminomethyl-3-fluoro-benzylamino)-methyl] mutilin tetrahydrochloride]",
4,0.5 µg/mL,,,"CC1C(O)C(C)(CNCc2cc(F)c(CN)cc2F)CC(OC(=O)CSc2ccc(CN)cn2)C2(C)C(C)CCC13CCC(=O)C32.Cl.Cl.Cl.Cl (stereo not drawn) [Example 103, 12-epi-12-desvinyl-14-O-{[5-Aminomethyl-pyridin-2-yl-sulfanyl]-acetyl}-12-[(4-aminomethyl-2,5-difluoro-benzylamino)-methyl] mutilin tetrahydrochloride]",
0.25,≦0.03 μg/mL,,,"CC1C(O)C(C)(CNCCCN)CC(OC(=O)CSc2ccc(CNCc3ccc(CN)cc3)cc2)C2(C)C(C)CCC13CCC(=O)C32.Cl.Cl.Cl.Cl (stereo not drawn) [Example 115, 12-epi-12-desvinyl-14-O-{{4-[(4-Aminomethyl-benzylamino)-methyl]-phenylsulfanyl}-acetyl}-12-[(3-amino-propylamino)-methyl] mutilin tetrahydrochloride]",
,,0.5,≤ 0.03,"C[C@@H]1CC[C@@]23CCC(=O)[C@H]2[C@]1(C)[C@H](OC(=O)CSC1CCCNCC1)C[C@](C)(CNCCCCCCN)[C@@H](O)[C@@H]3C (stereo partly drawn) [Example 130, 12-epi-12-desvinyl-14-O-[(Azepan-4-ylsulfanyl)-acetyl]-12-[(6-amino-hexylamino)-methyl] mutilin trihydrochloride]",
0.125,0.06 µg/mL,,,"CC1C(O)C(C)(CNCCCCCCNC(=N)N)CC(OC(=O)CSC2CCCNCC2)C2(C)C(C)CCC13CCC(=O)C32.Cl.Cl.Cl (stereo not drawn) [Example 131, 12-epi-12-desvinyl-14-O-[(Azepan-4-ylsulfanyl)-acetyl]-12-[(6-guanidino-hexylamino)-methyl] mutilin trihydrochloride]",
,,4,0.125,"C[C@@H]1CC[C@@]23CCC(=O)[C@H]2[C@]1(C)[C@H](OC(=O)CSC1CCCNCC1)C[C@](C)(CCNc1ccc(CN)cc1)[C@@H](O)[C@@H]3C (stereo partly drawn) [Example 143, 12-epi-12-desvinyl-14-O-[(Azepan-4-ylsulfanyl)-acetyl]-12-[(4-aminomethyl-phenylamino)-ethyl] mutilin trihydrochloride]",
,,8,≤ 0.03,"C[C@@H]1CC[C@@]23CCC(=O)[C@H]2[C@]1(C)[C@H](OC(=O)CSC1CCN(C(=O)CN)CC1)C[C@](C)(CCCCCCCCN)[C@@H](O)[C@@H]3C [Example 146, 12-epi-12-desvinyl-14-O-{[1-(2-Amino-acetyl)-piperidin-4-yl-sulfanyl]-acetyl}-2-(8-amino-octyl) mutilin dihydrochloride]",
,,4,0.25,"C[C@@H]1CC[C@@]23CCC(=O)C2[C@]1(C)[C@H](OC(=O)CSC1CCC(CNC(=O)CN)CC1)C[C@](C)(CCc1ccc(CNCCN)cc1)[C@@H](O)[C@@H]3C (stereo partly drawn) [Example 152, 12-epi-12-desvinyl-14-O-{{4-[(2-Amino-acetylamino)-methyl]-cyclohexylsulfanyl}-acetyl}-12-[2-{4-[(2-amino-ethylamino)-methyl]-phenyl}-ethyl) mutilin trihydrochloride]",
4,0.25 µg/mL,,,"CC1C(O)C(C)(C=Cc2ccc(CNCCN)c(F)c2)CC(OC(=O)CSC2CCCNCC2)C2(C)C(C)CCC13CCC(=O)C32.Cl.Cl.Cl (stereo not drawn) [Example 157, 12-epi-12-desvinyl-14-O-[(Azepan-4-ylsulfanyl)-acetyl]-12-((E)-2-{4-[(2-amino-ethylamino)-methyl]-3-fluoro-phenyl}-ethenyl) mutilin trihydrochlorid]",
128,0.5 µg/mL,,,"C=C[C@@]1(C)C[C@@H](OC(=O)CSc2nnc(N)[nH]2)[C@]2(C)[C@H](C)CC[C@]3(CCC(=O)[C@H]32)[C@@H](C)[C@@H]1O.Cl [Example C1, 12-epi-14-O-{[(5-Amino-4H-1,2,4-triazol-3-yl)-sulfanyl]-acetyl} mutilin hydrochloride, reference compound]",
32,≦0.03 μg/mL,,,"C=CC1(C)CC(OC(=O)CSc2ccc(CC(=O)NCC(C)N)cc2)C2(C)C(C)CCC3(CCC(=O)C32)C(C)C1O.Cl (centres unmarked) [Example C2, 14-O-{{4-[(2-Amino-propylcarbamoyl)-methyl]-phenylsulfanyl}-acetyl} mutilin hydrochloride, reference compound]",
>32,16 µg/mL,,,"CC1C(O)C(C)(CNCCCN)CC(OC(=O)CSC2CCC(N)CC2O)C2(C)C(C)CCC13CCC(=O)C32.Cl.Cl.Cl [Example C3, 14-O-{[(1R,2R,4R)-4-Amino-2-hydroxy-cyclohexylsulfanyl]-acetyl}-12-desvinyl-12-[(3-amino-propylamino)-methyl] mutilin trihydrochlorid, reference compound]",
,,,,"C=C[C@]1(C)C[C@@H](OC(=O)CS[C@@H]2C[C@H]3CC[C@@H](C2)N3C)[C@]2(C)[C@H](C)CC[C@]3(CCC(=O)[C@H]32)[C@@H](C)[C@@H]1O [Retapamulin, retapamulin, reference compound]","MIC ([1]; Escherichia coli, ATCC25922): 32 µg/mL; MIC ([2]; Staphylococcus aureus, ATCC49951): ≤ 0.03 µg/mL"
,,> 32,0.5,"C=C[C@]1(C)C[C@@H](OC(=O)CSCCN(CC)CC)[C@]2(C)[C@H](C)CC[C@]3(CCC(=O)[C@H]32)[C@@H](C)[C@@H]1O [Tiamulin, tiamulin, reference compound]",
